In ChEMBL document CHEMBL1128966, “Benzylphosphonic acid inhibitors of human prostatic acid phosphatase” (Bioorg Med Chem Lett, 1996):

Target: T1, Prostatic acid phosphatase (Homo sapiens, UniProt P15309)
T1 sequence (P15309 whole entry): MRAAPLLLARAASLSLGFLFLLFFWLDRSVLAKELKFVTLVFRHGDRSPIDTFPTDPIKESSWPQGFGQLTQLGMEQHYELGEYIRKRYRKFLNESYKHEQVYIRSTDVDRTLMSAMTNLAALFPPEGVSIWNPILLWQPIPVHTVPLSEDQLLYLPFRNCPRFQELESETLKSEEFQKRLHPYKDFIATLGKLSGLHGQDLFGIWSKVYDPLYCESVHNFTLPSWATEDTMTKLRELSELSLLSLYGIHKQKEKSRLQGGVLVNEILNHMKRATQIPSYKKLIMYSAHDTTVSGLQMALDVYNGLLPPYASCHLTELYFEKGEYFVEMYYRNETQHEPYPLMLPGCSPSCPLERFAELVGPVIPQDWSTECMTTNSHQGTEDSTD
Assay: Inhibition of human prostatic acid phosphatase was determined as inhibition of the hydrolysis of tyrosine phosphate

Q: For O=P(O)(O)C(c1ccccc1)c1ccc(-c2ccccc2)cc1 (configuration not stated), which IC50 is on record?
A: Its IC50 is 67 µM.

Q: For O=P(O)(O)Cc1cccc(C(F)(F)F)c1, which IC50 is on record?
A: Its IC50 is 88 µM.

Q: For O=P(O)(O)C1c2ccccc2Sc2ccccc21, which IC50 is on record?
A: The IC50 was greater than 100 µM.

Q: O=P(O)(O)C1c2ccccc2-c2ccccc21 was tested. Which IC50 did it give?
A: Its IC50 is greater than 500 µM.

Q: O=P(O)(O)C(c1ccccc1)c1ccccc1 was tested. Which IC50 did it give?
A: Its IC50 is 142 µM.

Q: With O=P(O)(O)C(CCc1ccccc1)c1ccccc1 (configuration not stated) as the compound, how does the IC50 read?
A: Its IC50 is 14 µM.

Q: For O=P(O)(O)C1c2ccccc2Oc2ccccc21, which IC50 is on record?
A: Its IC50 is 22 µM.

Q: O=P(O)(O)C1c2ccccc2CCc2ccccc21 was tested. Which IC50 did it give?
A: Its IC50 is 94 µM.

Q: For O=P(O)(O)C(Cc1ccc(-c2ccccc2)cc1)c1ccccc1 (configuration not stated), which IC50 is on record?
A: Its IC50 is 16 µM.

Q: O=P(O)(O)C(c1ccc(-c2ccccc2)cc1)c1ccc(-c2ccccc2)cc1 was tested. Which IC50 did it give?
A: Its IC50 is 70 µM.

Q: For O=P(O)(O)C1c2ccccc2C=Cc2ccccc21, which IC50 is on record?
A: The IC50 was greater than 100 µM.

Q: Which IC50 does the source give for O=P(O)(O)Cc1ccccc1 [BENZYLPHOSPHONIC ACID] here?
A: The IC50 was greater than 500 µM.
